Reference: patent US11413255B2, “Multifunctional cytoprotectant for treatment of pathogenic processes mediated by oxidative stress and toxic electrophiles” (Montefiore Medical Center, priority 2015, dated 2022)
“Also recorded” adds a separate entry of the source. Read-outs that look alike come from different tables or passages of the source.

Key:
[1] = In chemico prevention of thiol (GSH) depletion by acrolein; format: biochemical; conditions: FIG. 2B
[2] = system: raloxifene-exposed hepatocytes; assay: Raloxifene-induced hepatocyte toxicity; conditions: for protection against raloxifene: at 150 μM
APAP-exposed hepatocytes = assay: Hepatocyte rescue: protectant added 2 hrs after APAP; format: cell-based, mouse
[3] = system: isolated hepatocytes exposed to graded APAP; assay: Isolated hepatocytes, fixed protectant and graded APAP concentrations; format: cell-based, mouse
Excerpt: FIG. 8A-8B. […] Data are expressed as mean percent of control±SEM and *indicates p<0.05.

[4] = system: APAP-exposed isolated mouse liver cells (hepatocytes); assay: Viability of APAP-exposed isolated mouse hepatocytes, graded protectant concentrations; format: cell-based; conditions: read-out: EC50 (cytoprotection)
[5] = pKa and % anion at physiological pH; conditions: for % in the carbanion / ionized nucleophilic state: physiological / cellular pH
[6] = system: raloxifene-exposed hepatocytes
APAP-intoxicated mice = conditions: for hepatoprotection in APAP-intoxicated mice, i. p. administration: i. p. 20 mins prior to APAP, THA 0.20-0.80, PG 0.40-2.40, 4-NAHA 0.04-0.08 mmol/kg; for hepatoprotection in APAP-intoxicated mice, oral administration: THA and PG 0.80-2.40, 4-NAHA 0.04-0.12, NAC 1.60-2.40 mmol/kg
Excerpt: Survival curves, THA and PG i. p. administration.
Survival curves, THA and PG oral administration.
Survival curves, 4-NAHA i. p. and oral administration.

mice [7] = system: mice
[8] = system: cell culture models of oxidative stress and electrophile (acrolein) toxicity; conditions: cited from earlier work
[9] = In chemico prevention of thiol (GSH) depletion by NAPQI; format: biochemical; conditions: FIG. 2A
mice [10] = conditions: cited from earlier work
[11] = system: carbon tetrachloride-induced hepatotoxicity in mice; conditions: 0.032 mmol/kg p. o.; carbon tetrachloride 0.5 ml/kg i. p.; cited from earlier work
[12] = Computational data on THA analogues: pKa and % anion; format: physicochemical
Excerpt: Computational Data on THA Analogues:

[13] = 0.25 mM protectant, APAP 1.0 mM
[14] = 0.25 mM protectant, APAP 0.25-5.0 mM×4 hrs
[15] = 1.0 mM protectant, APAP 0.25-5.0 mM×4 hrs
[16] = 0.25 mM protectant, highest APAP concentration 5.0 mM

| Compound | protection against raloxifene [2] | effect on viability, protectant added 2 hrs post-APAP (APAP-exposed hepatocytes; [13]) | effect on viability, protectant added 2 hrs post-APAP (APAP-exposed hepatocytes; 1.0 mM protectant) | cytoprotection (viability) [3, 14] | toxicity measures (ALT appearance, mitochondrial membrane potential) ([3]; 1.0 mM protectant) | cytoprotection (viability) [3, 15] | EC50 ([4]; Mus musculus, Hepatocyte, 4 h) | % Anion (pH 7.4) [5] | hepatoprotection in APAP-intoxicated mice, oral administration (APAP-intoxicated mice) | other results |
| --- | --- | --- | --- | --- | --- | --- | --- | --- | --- | --- |
| CC(=O)C1CCCC1=O (stereo not drawn) [2-ACP, 2-acetylcyclopentanone] | partial protection | ineffective | truncated the rapid decline in viability | neither 2-ACP nor NAC provided cytoprotection beyond the lowest APAP concentration | return toward normalization of the toxicity indices | partial cytoprotection | ~1000 µM | 28.0% | – | prevention of acrolein-induced thiol (GSH) depletion [1]: better GSH protection from acrolein than THA or PG; effect on viability, protectant added 2 hrs post-APAP (APAP-exposed hepatocytes; 5 mM protectant, APAP 1.0 mM): promoted recovery of APAP-exposed hepatocytes |
| CC(=O)c1cc(O)c(C(C)=O)c(O)c1 [4-NAHA, 4-acetyl-2,6-dihydroxy acetophenone] | fully protective | – | – | – | – | – | – | – | effective over a broader dose-range | EC50 ([4]; APAP 1.0 mM, 4 hrs, protectant 0.010-5.0 mM): 6 µM; relative ability to prevent raloxifene-induced hepatocyte toxicity [6]: superior protection; hepatoprotection (APAP-intoxicated mice; i. p. 0.04 mmol/kg): ineffective; hepatoprotection (APAP-intoxicated mice; i. p. 0.08 mmol/kg): significant hepatoprotection; hepatoprotection in APAP-intoxicated mice, i. p. administration (APAP-intoxicated mice): dose-dependent protection; hepatoprotection (APAP-intoxicated mice; oral 0.04 mmol/kg): ineffective; hepatoprotection (APAP-intoxicated mice; oral 0.12 mmol/kg, lethality significantly delayed): partially protective; delayed toxicity (mice [7]; all doses tested, 7 days): did not cause delayed toxicity; acute toxicity (mice [7]; doses 0.04-0.12 mmol/kg): not acutely toxic |
| CC(=O)N[C@@H](CS)C(=O)O [NAC, N-acetyl cysteine] | partial protection | ineffective | truncated the rapid decline in viability | neither 2-ACP nor NAC provided cytoprotection beyond the lowest APAP concentration | return toward normalization of the toxicity indices | partial cytoprotection | ~1000 µM | 0.80% | effective APAP antidote only when administered orally | effect on viability, protectant added 2 hrs post-APAP (APAP-exposed hepatocytes; 5 mM protectant, APAP 1.0 mM): promoted recovery of APAP-exposed hepatocytes |
| Oc1cc(O)cc(O)c1 [PG, 1,3,5-trihydroxybenzene] | – | arrested the progression of APAP-induced toxicity | complete restoration of viability | fully protective up to the 1.0 mM APAP concentration | – | full hepatocyte protection irrespective of APAP concentration | ~90 µM | 7.40% | – | pKa (physchem): 8.45; cytoprotection (viability) [3, 16]: only partial cytoprotection; % in the carbanion / ionized nucleophilic state [5]: 7% |
| O=C(CCc1ccc(O)cc1)c1c(O)cc(O)cc1O [Phloretin, phloretin] | – | – | – | – | – | – | – | 55.0% | – | effect of higher concentrations ([8]; above the protective range): cytotoxic; concentrations giving significant cytoprotection ([8]; several cell culture models): 100 to 250 µM; hepatoprotection (APAP-intoxicated mice; i. p. 0.200 mmol/kg, APAP 500 mg/kg p. o.): marginal hepatoprotection; lethality when administered alone (mice [7]; 0.40-2.40 mmol/kg, administered alone): associated with lethality |
| CC(=O)c1c(O)cc(O)cc1O [THA, 2′,4′,6′-trihydroxyacetophenone] | fully protective | partial recovery of viability | complete restoration of viability | fully protective up to the 1.0 mM APAP concentration | normal | full hepatocyte protection irrespective of APAP concentration | ~90 µM | 33.0% | dose-dependent hepatoprotection; also recorded: dose-dependent protection | prevention of acrolein-induced thiol (GSH) depletion [1]: better thiol protection than PG; prevention of NAPQI-induced thiol (GSH) depletion [9]: better thiol protection than PG; also recorded: better protection against NAPQI-induced GSH loss; pKa (physchem): 7.75; relative ability to prevent raloxifene-induced hepatocyte toxicity ([2]; FIG. 10 legend): superior protection; cytoprotection (viability) [3, 16]: preserved cell viability; oral LD50 mice (mice [10]): 3.20 gm/kg; hepatoprotection in APAP-intoxicated mice, i. p. administration (APAP-intoxicated mice): dose-dependent (0.20-0.80 mmol/kg) hepatoprotection; pKa [5]: 7.7; % in the carbanion / ionized nucleophilic state [5]: approximately 33%; lethality associated with the i. p. doses (mice [7]; i. p. doses of FIG. 3): No lethality; prevention of carbon tetrachloride-induced hepatotoxicity [11]: completely prevent |
| O=C(CCc1ccc(O)cc1)c1c(O)cc(O)cc1O [drawing 21] | – | – | – | – | – | – | – | – | – | % Anion (pH = 7.4) [12]: 56% |
| Oc1cc(O)cc(O)c1 [drawing 24] | – | – | – | – | – | – | – | – | – | % Anion (pH = 7.4) [12]: 07%; pKa ([12]; values without * (not estimates)): 8.5 |
| O=C(c1ccc(OCCN2CCCCC2)cc1)c1c(-c2ccc(O)cc2)sc2cc(O)ccc12 [raloxifene, reference compound] | – | – | – | – | – | – | – | – | – | concentration producing hepatocyte toxicity ([2]; raloxifene exposure): 75 µM |
